Some test systems named below: DMS 273 small cell lung; ACHN renal; U251 CNS; KM12 colon; HOP-62 NSCLC; SW-620 colon; SR leukemia; DU-145 prostate; OVCAR-3 ovarian; MCF7 breast.
Holding throughout (test): growth of human tumour cells (NCI), 48 h

The values that follow come from PubChem BioAssay (NCI).

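How tested: cells in 96-well plates exposed to compound for 48 hours at five concentrations. TGI denotes the concentration required for complete inhibition of growth.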

Turning to `O=C(c1ccccc1)c1ccc2c(c1)N=C(c1ccc(Cl)c(Cl)c1)CC(c1ccc3ccccc3c1)N2` (centres undefined), the TGI in the experiment with DMS 273 small cell lung, with ACHN renal, in the experiment on U251 CNS, with KM12 colon, in the experiment on HOP-62 NSCLC and in the experiment on SW-620 colon was above 100 µM each time. The compound also registered a TGI with SR leukemia above 100 µM.
In the case of `COC(=O)[C@]12CCC(=O)N1[C@H](C(=O)O)Cc1c2[nH]c2ccccc12`, the TGI in the experiment on ACHN renal, in the experiment on DU-145 prostate, in the experiment with U251 CNS, in the experiment on OVCAR-3 ovarian, with KM12 colon and in the experiment on HOP-62 NSCLC was above 100 µM in each case. In addition, the TGI in the experiment on SW-620 colon, in the experiment on SR leukemia and in the experiment with MCF7 breast was above 100 µM each time.
For the compound `CC(C)=CCC/C(C)=C/CCC1(C)C2COC(=O)C21` (centres undefined), the TGI in the experiment on ACHN renal, in the experiment with DU-145 prostate, in the experiment on U251 CNS, in the experiment with OVCAR-3 ovarian, with KM12 colon and in the experiment on HOP-62 NSCLC was above 100 µM throughout. Further, the TGI in the experiment on SW-620 colon, with SR leukemia and with MCF7 breast was above 100 µM in each case.
Take `Cc1ccc2c3ccc4c(c3n(C)c2c1)C(=O)C=CC4=O`: the TGI is above 10 µM in the experiment on ACHN renal; above 10 µM in the experiment on DU-145 prostate; above 10 µM in the experiment on U251 CNS; 8.6 µM with OVCAR-3 ovarian; above 10 µM in the experiment on KM12 colon; above 10 µM with HOP-62 NSCLC. The results for the TGI in the experiment with SW-620 colon, in the experiment on SR leukemia and with MCF7 breast were 4.58 µM, 4.73 µM and above 6.18 µM, respectively.
With `CC1Oc2c(c(O)cc3oc(=O)cc(-c4ccccc4)c23)C(=O)C1C` (centres undefined), the TGI in the experiment with DMS 273 small cell lung, in the experiment with ACHN renal, in the experiment on U251 CNS, with OVCAR-3 ovarian and in the experiment with SW-620 colon was above 100 µM throughout.
As for `O=c1[nH]nc(Cc2ccc([N+](=O)[O-])cc2)[nH]1`, the TGI in the experiment with ACHN renal, in the experiment on DU-145 prostate, in the experiment on U251 CNS, in the experiment on OVCAR-3 ovarian, in the experiment on KM12 colon and in the experiment on HOP-62 NSCLC was above 100 µM throughout. For the same compound, the TGI in the experiment with SW-620 colon, in the experiment on SR leukemia and in the experiment on MCF7 breast was above 100 µM in each case.
For `NCCCN1CCN(CCCNc2ccc3ncn4c5ccccc5c(=O)c2c34)CC1`, the TGI with ACHN renal is 13.9 µM; in the experiment with DU-145 prostate, 8.2 µM; in the experiment with U251 CNS it was above 25 µM; in the experiment on OVCAR-3 ovarian, above 25 µM; in the experiment on KM12 colon, 13.1 µM; in the experiment on HOP-62 NSCLC, above 25 µM. In addition, the TGI with SW-620 colon, in the experiment on SR leukemia and in the experiment on MCF7 breast was above 25 µM each time.
Regarding `c1csc(-c2csc(-c3cccs3)c2)c1`, the TGI in the experiment with ACHN renal, in the experiment with DU-145 prostate, in the experiment on U251 CNS, with OVCAR-3 ovarian, in the experiment with KM12 colon and with HOP-62 NSCLC was above 100 µM each time. Besides, the TGI was above 100 µM with SW-620 colon, 66.8 µM in the experiment with SR leukemia and 75.2 µM in the experiment on MCF7 breast.
For the compound `CC[N+]1(C)CCC(O)(/C=C/c2ccc(Cl)c(Cl)c2)C(C(=O)/C=C/c2ccc(Cl)c(Cl)c2)C1` (centres undefined), the TGI was determined as 4.15 µM in the experiment with ACHN renal; 6.87 µM with DU-145 prostate; 3.71 µM in the experiment with U251 CNS; 10.6 µM with OVCAR-3 ovarian; 6.69 µM in the experiment with KM12 colon; 6.8 µM in the experiment on HOP-62 NSCLC. For the same compound, the TGI in the experiment with SW-620 colon was 4.47 µM; in the experiment with SR leukemia, above 22.7 µM; in the experiment with MCF7 breast, 6.52 µM.
For the compound `COc1cc2c(cc1OCc1ccccc1)NC(=O)[C@@H]1C[C@@H](O)CN1C2=O`, the TGI in the experiment with ACHN renal, in the experiment on DU-145 prostate, with U251 CNS, in the experiment on OVCAR-3 ovarian, in the experiment on KM12 colon and with HOP-62 NSCLC was above 100 µM in each case. The TGI in the experiment with SW-620 colon, with SR leukemia and in the experiment on MCF7 breast was above 100 µM in each case.
On to `Cc1cccc(/C=N/NC(=S)NC(C)(C)C)n1`, for which the TGI in the experiment on ACHN renal, with DU-145 prostate, in the experiment on U251 CNS, in the experiment with OVCAR-3 ovarian, in the experiment on KM12 colon and with HOP-62 NSCLC was above 100 µM each time. The TGI in the experiment on SW-620 colon, with SR leukemia and in the experiment with MCF7 breast was above 100 µM in each case.
Turning to `O/N=C1/CCCCC1NO` (centres undefined), the TGI with ACHN renal, in the experiment on DU-145 prostate, in the experiment on U251 CNS, with OVCAR-3 ovarian, in the experiment on KM12 colon and in the experiment on HOP-62 NSCLC was above 100 µM each time. For the same compound, the TGI with SW-620 colon, with SR leukemia and in the experiment on MCF7 breast was above 100 µM each time.
As to `O=c1oc2ccccc2cc1-c1nc2ccccc2s1`, the TGI in the experiment with ACHN renal is above 20.1 µM; in the experiment with DU-145 prostate, 43.7 µM; in the experiment on U251 CNS it was 21.4 µM; in the experiment with OVCAR-3 ovarian, 20.7 µM; in the experiment on KM12 colon, above 54.3 µM; in the experiment on HOP-62 NSCLC, 17.8 µM. The results for the TGI with SW-620 colon, in the experiment with SR leukemia and with MCF7 breast were 34.8 µM, above 100 µM and 6.53 µM, respectively.
With `COc1ccc(C2=C(N)c3ccccc3C2=O)cc1`, the TGI with ACHN renal, in the experiment with DU-145 prostate, in the experiment on U251 CNS, with OVCAR-3 ovarian, in the experiment with KM12 colon and with HOP-62 NSCLC was above 100 µM in each case. For the same compound, the TGI in the experiment on SW-620 colon, in the experiment with SR leukemia and in the experiment on MCF7 breast was above 100 µM in each case.
For the compound `C=C(Cl)C(=C)CCC(Cl)C(C)(C)Cl` (centres undefined), the TGI in the experiment on ACHN renal, in the experiment on DU-145 prostate, in the experiment on U251 CNS, in the experiment on OVCAR-3 ovarian, in the experiment on KM12 colon and with HOP-62 NSCLC was above 100 µM throughout. In addition, the TGI in the experiment with SW-620 colon, in the experiment on SR leukemia and with MCF7 breast was above 100 µM throughout.
Consider `COc1ccc(/C(Cl)=C(\C=O)c2ccc(Cl)cc2)cc1`, for which the TGI with DMS 273 small cell lung was above 100 µM; with ACHN renal, 21.2 µM; in the experiment with U251 CNS, 17.7 µM; with OVCAR-3 ovarian, 32.1 µM; in the experiment with HOP-62 NSCLC, 53.6 µM; with SW-620 colon it was above 100 µM. In the experiment on SR leukemia, this compound returned a TGI of 6.7 µM.
With `COc1cc(/C=C/C=C2\CC(C)C/C(=C\C=C\c3ccc(O)c(OC)c3)C2=O)ccc1O` (centres undefined), the TGI in the experiment with ACHN renal is 40.8 µM; in the experiment with DU-145 prostate, above 100 µM; in the experiment with U251 CNS, 33 µM; in the experiment on OVCAR-3 ovarian, 31.1 µM; in the experiment on KM12 colon, above 100 µM; in the experiment on HOP-62 NSCLC, 37.8 µM. Besides, the TGI with SW-620 colon is above 100 µM; in the experiment on SR leukemia, 91.4 µM; in the experiment with MCF7 breast, 42 µM.
For the compound `OCC1=C[C@@](COCc2ccccc2)(OCc2ccccc2)[C@@H](OCc2ccccc2)[C@@H]1OCc1ccccc1`, the TGI in the experiment on ACHN renal was above 100 µM; with DU-145 prostate, above 100 µM; with U251 CNS it was 25.6 µM; with OVCAR-3 ovarian it was 27.3 µM; in the experiment with KM12 colon, 56.6 µM; in the experiment with HOP-62 NSCLC, 70.6 µM. Further, the TGI in the experiment on SW-620 colon is above 100 µM; in the experiment with SR leukemia, 33.4 µM; in the experiment with MCF7 breast it was 23.8 µM.
Regarding `Cc1cc(C(C)(C)C)c(OCCCN2CCOCC2)c(C(C)(C)C)c1`, the TGI in the experiment on ACHN renal was found to be 31.2 µM; in the experiment on DU-145 prostate, 34.1 µM; with U251 CNS, 33.2 µM; in the experiment on OVCAR-3 ovarian it was 36.1 µM; in the experiment with KM12 colon it was 36 µM; in the experiment on HOP-62 NSCLC, 38.6 µM. The values for the TGI in the experiment with SW-620 colon, with SR leukemia and in the experiment with MCF7 breast were 32.3 µM, 47 µM and 33.6 µM, respectively.
In the case of `CCOC(=O)C1C2C1C1C(C(=O)OCC)C21` (centres undefined), the TGI in the experiment on ACHN renal, in the experiment on DU-145 prostate, with U251 CNS, in the experiment with OVCAR-3 ovarian, in the experiment on KM12 colon and in the experiment on HOP-62 NSCLC was above 100 µM throughout. Moreover, the TGI in the experiment on SW-620 colon, in the experiment with SR leukemia and in the experiment with MCF7 breast was above 100 µM each time.
Turning to `O=[N+]([O-])c1ccc(-c2nc3ccccc3o2)cc1`, the TGI with ACHN renal, in the experiment on DU-145 prostate, with U251 CNS, in the experiment on OVCAR-3 ovarian, in the experiment with KM12 colon and in the experiment with HOP-62 NSCLC was above 100 µM each time. Besides, the TGI in the experiment on SW-620 colon, in the experiment with SR leukemia and in the experiment with MCF7 breast was above 100 µM in each case.
Turning to `CC1=C(C(=O)OC(C)C)C(c2cccc([N+](=O)[O-])c2)C(C(=O)OC(CO[N+](=O)[O-])CO[N+](=O)[O-])=C(C)N1` (centres undefined), the TGI in the experiment on ACHN renal was above 100 µM; with DU-145 prostate, above 100 µM; in the experiment with U251 CNS, 6.97 µM; in the experiment with OVCAR-3 ovarian, above 22.1 µM; in the experiment with KM12 colon, 12.9 µM; in the experiment on HOP-62 NSCLC it was 16.5 µM. Besides, the TGI in the experiment on SW-620 colon is above 100 µM; in the experiment on SR leukemia it was 15.6 µM; in the experiment on MCF7 breast it was 1.12 µM.
`OCC(CO)CC1COc2ccccc2O1` (centres undefined): the TGI with ACHN renal, with DU-145 prostate, with U251 CNS, with OVCAR-3 ovarian, with KM12 colon and with HOP-62 NSCLC was above 10 µM in each case. In addition, the TGI in the experiment on SW-620 colon, with SR leukemia and in the experiment with MCF7 breast was above 10 µM throughout.
